Data from patent publication US20240415819A1, “MACROCYCLIC COMPOUNDS AS PROTEASOME SUBUNIT BETA TYPE-5 INHIBITORS” (Lead Discovery Center GmbH, priority 2021, published 2024).

Tested on: hPMBC
Experiment: Chymotrypsin-like ProteasomeGlo assay in hPBMC
Assay type: cell-based
Settings: Homo sapiens; read-out: Pglo hPBMC
Procedure, shortened: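 IC50 derived from luminescent chymotrypsin-like proteasome activity (Suc-LLVY-Glo substrate plus luciferin detection reagent). Measured after 105 min compound exposure at 37 °C, 5% CO2. Cells were human B cells purified from buffy-coat PBMC.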

Structure (SMILES) | IC50
Cc1ccc2cc1CNC(=O)[C@H](CCc1ccccc1)NC(=O)[C@@H](NC(=O)CN1CCOCC1)CC(=O)N1CCCC(CCO2)C1 (stereo partly drawn) [Compound 88, N-((9S,12S)-5^4-methyl-8,11,14-trioxo-9-phenethyl-4-oxa-7,10-diaza-1(3,1)-piperidina-5(1,3)-benzenacyclotetradecaphane-12-yl)-2-morpholinoacetamide] | < 100 nM
COc1ccc2cc1CNC(=O)[C@H](CCc1ccccc1)NC(=O)[C@@H](NC(C)=O)CC(=O)N1CCCC(CCO2)C1 (stereo partly drawn) [Compound 211, N-((9S,12S)-5^4-methoxy-8,11,14-trioxo-9-phenethyl-4-oxa-7,10-diaza-1(3,1)-piperidina-5(1,3)-benzenacyclotetradecaphane-12-yl)acetamide] | 100 to 500 nM
CC(=O)N[C@H]1CC(=O)N2CCOC(CCOc3ccc(C)c(c3)CNC(=O)[C@H](CCc3ccccc3)NC1=O)C2 (stereo partly drawn) [Compound 258, N-((9S,12S)-5^4-methyl-8,11,14-trioxo-9-phenethyl-4-oxa-7,10-diaza-1(2,4)-morpholina-5(1,3)-benzenacyclotetradecaphane-12-yl)acetamide] | 100 to 500 nM
Cc1ccc2cc1CNC(=O)[C@H](CCc1ccccc1)NC(=O)[C@@H](NC(=O)CCc1ccc(-c3ccccc3)cc1)CC(=O)N1CCCC(CCO2)C1 (stereo partly drawn) [Compound 176, 3-([1,1′-biphenyl]-4-yl)-N-((9S,12S)-5^4-methyl-8,11,14-trioxo-9-phenethyl-4-oxa-7,10-diaza-1(3,1)-piperidina-5(1,3)-benzenacyclotetradecaphane-12-yl)propanamide] | < 100 nM
COc1ccccc1CC(=O)N[C@H]1CC(=O)N2CCCC(CCOc3ccc(C)c(c3)CNC(=O)[C@H](CCc3ccccc3)NC1=O)C2 (stereo partly drawn) [Compound 84, 2-(2-methoxyphenyl)-N-((9S,12S)-5^4-methyl-8,11,14-trioxo-9-phenethyl-4-oxa-7,10-diaza-1(3,1)-piperidina-5(1,3)-benzenacyclotetradecaphane-12-yl)acetamide] | < 100 nM
Cc1ccc2cc1CNC(=O)[C@H](CCc1ccccc1)NC(=O)[C@@H](NC(=O)[C@H](C)c1ccccc1)CC(=O)N1CCCC(CCO2)C1 (stereo partly drawn) [Compound 80, (2R)-N-((9S,12S)-5^4-methyl-8,11,14-trioxo-9-phenethyl-4-oxa-7,10-diaza-1(3,1)-piperidina-5(1,3)-benzenacyclotetradecaphane-12-yl)-2-phenylpropanamide] | < 100 nM
CNCC(=O)N[C@H]1CC(=O)N2CCCC(CCOc3ccc(C)c(c3)CNC(=O)[C@H](CCc3ccccc3)NC1=O)C2 (stereo partly drawn) [Compound 129, N-((9S,12S)-5^4-methyl-8,11,14-trioxo-9-phenethyl-4-oxa-7,10-diaza-1(3,1)-piperidina-5(1,3)-benzenacyclotetradecaphane-12-yl)-2-(methylamino)acetamide] | < 100 nM
Cc1ccc2cc1CNC(=O)[C@H](CCc1ccccc1)NC(=O)[C@@H](NC(=O)Cc1ccc(N)cc1)CC(=O)N1CCCC(CCO2)C1 (stereo partly drawn) [Compound 128, 2-(4-aminophenyl)-N-((9S,12S)-5^4-methyl-8,11,14-trioxo-9-phenethyl-4-oxa-7,10-diaza-1(3,1)-piperidina-5(1,3)-benzenacyclotetradecaphane-12-yl)acetamide] | < 100 nM
Cc1ccc2cc1CNC(=O)[C@H](CCc1ccccc1)NC(=O)[C@@H](NC(=O)c1n[nH]c3ccccc13)CC(=O)N1CCCC(CCO2)C1 (stereo partly drawn) [Compound 60, N-((9S,12S)-5^4-methyl-8,11,14-trioxo-9-phenethyl-4-oxa-7,10-diaza-1(3,1)-piperidina-5(1,3)-benzenacyclotetradecaphane-12-yl)-1H-indazole-3-carboxamide] | 100 to 500 nM
Cc1ccc2cc1CNC(=O)[C@H](CCc1ccccc1)NC(=O)[C@@H](NC(=O)C(C)(C)CO)CC(=O)N1CCCC(CCO2)C1 (stereo partly drawn) [Compound 284, 3-hydroxy-2,2-dimethyl-N-((9S,12S)-5^4-methyl-8,11,14-trioxo-9-phenethyl-4-oxa-7,10-diaza-1(3,1)-piperidina-5(1,3)-benzenacyclotetradecaphane-12-yl)propanamide] | < 100 nM
Cc1ccc2cc1CNC(=O)[C@H](CCc1ccccc1)NC(=O)[C@@H](NC(=O)[C@@H](N)Cc1ccccc1)CC(=O)N1CCCC(CCO2)C1 (stereo partly drawn) [Compound 179, (2R)-2-amino-N-((9S,12S)-5^4-methyl-8,11,14-trioxo-9-phenethyl-4-oxa-7,10-diaza-1(3,1)-piperidina-5(1,3)-benzenacyclotetradecaphane-12-yl)-3-phenylpropanamide-] | < 100 nM
CC(=O)N[C@H]1CC(=O)N2CCCC(CCOc3ccc(C)c(c3)CNC(=O)C(c3cnn(CCCC(=O)O)c3)NC1=O)C2 (stereo partly drawn) [Compound 568, 4-(4-((12S)-12-acetamido-5^4-methyl-8,11,14-trioxo-4-oxa-7,10-diaza-1(3,1)-piperidina-5(1,3)-benzenacyclotetradecaphane-9-yl)-1H-pyrazol-1-yl)butanoic acid] | < 100 nM
CC(=O)N[C@H]1CCC(=O)N2CCCC(C2)Oc2ccc(C)c(c2)CNC(=O)[C@H](CCc2ccccc2)NC1=O (stereo partly drawn) [Compound 148, N-((7S,10S)-3^4-methyl-6,9,13-trioxo-7-phenethyl-2-oxa-5,8-diaza-1(3,1)-piperidina-3(1,3)-benzenacyclotridecaphane-10-yl)acetamide] | 500 to 1000 nM
Cc1ccc2cc1CNC(=O)[C@H](CCc1ccccc1)NC(=O)[C@@H](NC(=O)C1(N)COC1)CC(=O)N1CCCC(CCO2)C1 (stereo partly drawn) [Compound 158, 3-amino-N-((9S,12S)-5^4-methyl-8,11,14-trioxo-9-phenethyl-4-oxa-7,10-diaza-1(3,1)-piperidina-5(1,3)-benzenacyclotetradecaphane-12-yl)oxetane-3-carboxamide] | < 100 nM
Cc1ccc2cc1CNC(=O)[C@H](CCc1ccccc1)NC(=O)[C@@H](NC(=O)C1(N)CCOC1)CC(=O)N1CCCC(CCO2)C1 (stereo partly drawn) [Compound 159, 3-amino-N-((9S,12S)-5^4-methyl-8,11,14-trioxo-9-phenethyl-4-oxa-7,10-diaza-1(3,1)-piperidina-5(1,3)-benzenacyclotetradecaphane-12-yl)tetrahydrofuran-3-carboxamide] | < 100 nM
Cc1ccc2cc1CNC(=O)[C@H](Cc1c[nH]c3ccccc13)NC(=O)CCC(=O)N1CCCC(CCO2)C1 (stereo partly drawn) [Compound 77, (9S)-9-((1H-indol-3-yl)methyl)-5^4-methyl-4-oxa-7,10-diaza-1(3,1)-piperidina-5(1,3)-benzenacyclotetradecaphane-8,11,14-trione] | 100 to 500 nM
CC(=O)N[C@H]1CC(=O)N2CCCC(CCOc3ccc(C)c(c3)CNC(=O)C(CCc3cnccn3)NC1=O)C2 (stereo partly drawn) [Compound 564, N-((12S)-5^4-methyl-8,11,14-trioxo-9-(2-(pyrazin-2-yl)ethyl)-4-oxa-7,10-diaza-1(3,1)-piperidina-5(1,3)-benzenacyclotetradecaphane-12-yl)acetamide] | < 100 nM
